{"source": "patent US9867827B1", "about": "“Methods and formulations for topical treatment of psoriasis” (Florida A&M University, priority 2015, dated 2018)", "key": {"TNFα": {"system": "TNFα", "experiment": "Western blot analysis of skin samples, TNFα", "format": "in vivo, C57BL/6 mice", "settings": "compared to the TOPGRAF group, p<0.05", "protocol": "The animals were then treated by applying cetylpyridinum chloride (CPC)-urea gel containing blank formulation as negative control, pemetrexed formulation, siTNFα formulation, pemetrexed-siTNFα combination formulation, or a known tacrolimus cream (TOPGRAF) as a positive control.\nFor western blot analysis, skin samples were minced in lysis cocktail composed of RIPA lysis buffer, protease inhibitor (PI) and phenylmethylsulfonyl fluoride (PMSF). BCA Protein Assay Reagent Kit was used to estimate the protein concentration per the manufacturer's protocol. 50 μg of the extracted protein for each sample was loaded into a gel and subjected to SDS-polyacrylamide electrophoresis (SDS-PAGE). The blots were incubated with primary antibodies for TNFα, NFkB, IL23, IL17, and β-actin and subsequently detected with Horseradish peroxidase-conjugated secondary antibodies using a S[…] PICO Chemiluminescent Substrate (Pierce, Rockford, Ill., USA) and BIORAD CHEMIDOC XRS+ imaging system (Hercules, Calif., USA)."}, "NFkB": {"system": "NFkB", "experiment": "Western blot analysis of skin samples, NFkB", "format": "in vivo, C57BL/6 mice", "settings": "compared to the TOPGRAF group, p<0.05", "protocol": "(§1) At the end of the study, skin samples were harvested and analyzed for inflammatory proteins by immunohistochemistry and western blot analyses.\n(§2) For western blot analysis, skin samples were minced in lysis cocktail composed of RIPA lysis buffer, protease inhibitor (PI) and phenylmethylsulfonyl fluoride (PMSF). BCA Protein Assay Reagent Kit was used to estimate the protein concentration per the manufacturer's protocol. 50 μg of the extracted protein for each sample was loaded into a gel and subjected to SDS-polyacrylamide electrophoresis (SDS-PAGE). The blots were incubated with primary antibodies for TNFα, NFkB, IL23, IL17, and β-actin and subsequently detected with Horseradish peroxidase-conjugated secondary antibodies using a SUPERSIGNAL WEST PICO Chemiluminescent Substrate (Pierce, Rockford, Ill., USA) and BIORAD CHEMIDOC XRS+ imaging system (Hercules, Calif., USA)."}, "IL23": {"system": "IL23", "experiment": "Western blot analysis of skin samples, IL23", "format": "in vivo, C57BL/6 mice", "settings": "compared to the TOPGRAF group, p<0.05", "protocol": "as §1, §2"}, "IL17": {"system": "IL17", "experiment": "Western blot analysis of skin samples, IL17", "format": "in vivo, C57BL/6 mice", "settings": "compared to the TOPGRAF group, p<0.05", "protocol": "as §1, §2"}, "[1]": {"system": "IMQ-induced psoriatic-like plaques", "settings": "after five treatments", "experimental": "(§3) Briefly, IMQ cream was applied topically to the shaven dorsal regions of C57BL/6 mice (4 mg/day/animal) to form psoriatic-like plaques. […] The CPC-urea gels containing the foregoing formulations were applied to the inflamed dorsal regions of the animals for five (5) consecutive days.\nA clinical scoring method for the PASI was used daily to score the severity of the inflammation induced on the dorsal regions of the mice, based on the extent of erythema, scaling, and epidermal thickening. The PASI score was assigned daily after initiating treatment on a scale of 0 to 4, where 0 indicated no inflammation, 1 indicated slight inflammation, 2 indicated moderate inflammation, 3 indicated marked inflammation, and 4 indicated very severe inflammation."}, "[2]": {"system": "IMQ-induced psoriatic-like plaques", "settings": "after five treatments, topical", "experimental": "as §3\nThe TEWL was estimated using DELFIN VAPOMETER (DELFIN Technologies Ltd, Finland) as a measure of the extent of skin damage and healing with each day of treatment. The device was placed gently on the dorsal region of the mice each day of treatment and the value corresponding to water loss was recorded."}}, "note": "“Also recorded” adds a separate entry of the source.", "data": [{"compound": "Nc1nc2[nH]cc(CCc3ccc(C(=O)N[C@@H](CCC(=O)O)C(=O)O)cc3)c2c(=O)[nH]1", "note": "[pemetrexed]", "values": [{"measurement": "expression of TNFα (western blot)", "setting": "TNFα", "result": "significant reduction"}, {"measurement": "expression of NFKB (western blot)", "setting": "NFkB", "result": "significant reduction"}, {"measurement": "expression of IL23 (western blot)", "setting": "IL23", "result": "significant reduction; also recorded: decreased expressions"}, {"measurement": "expression of IL17 (western blot)", "setting": "IL17", "result": "significant reduction; also recorded: decreased expressions"}, {"measurement": "PASI score compared to tacrolimus cream (TOPGRAF)", "setting": "[1]; topical", "result": "better PASI score; also recorded: superior"}, {"measurement": "erythema and scaling compared to other groups", "setting": "[1]; topical", "result": "significant reduction in erythema and scaling"}, {"measurement": "PASI score", "setting": "[1]; topical CPC-urea gel, scale of 0 to 4", "result": "~0"}, {"measurement": "psoriatic plaque", "setting": "[1]; topical, b57 compared to TOPGRAF", "result": "reduction in psoriatic plaque"}, {"measurement": "TEWL compared to tacrolimus cream (TOPGRAF)", "setting": "[2]", "result": "better TEWL"}]}]}
